Test results published in patent US20070149554A1, “Cancer chemotherapy” (Yung Shin Pharmaceutical Ind. Co., Ltd., priority 2005, published 2007).

Columns and labels:
[1] = system: WEHI-3 cells; assay: TUNEL/DAPI staining (apoptosis) in WEHI-3 cells; assay type: cell-based, murine; conditions: for TUNEL positive cells: 24 h, FIG. 3B; for nuclear shrinkage, chromatin condensation and DNA fragmentation (TUNEL/DAPI): 24 h culture, FIG. 3A
[2] = system: WEHI-3 cells; assay: NBT reduction (differentiation) in WEHI-3 cells; assay type: cell-based, murine; conditions: 24 h; for percentages of NBT positive cells: FIG. 3B
[3] = system: WEHI-3 leukemia cells; assay: Survival, organ and body weight, spleen histopathology of BALB/c mice bearing WEHI-3 leukemia cells; assay type: in vivo; conditions: for mean survival time of WEHI-3/BALB/c mice: 30 mg/kg/mouse i.p., untreated 30 days, text of b65; for Survival days Range / Survival days Mean ± S.D.: 30 mg/kg/mouse, QD*7 (once two days by seven times), 10 mice; for Survival days Range: untreated 20-30; for Survival days Mean ± S.D.: untreated 26.0 ± 3.9; for infiltration of immature myeloblastic cells into splenic red pulp: H-E stain of spleen section, FIG. 2; for body weight loss in leukemia mice: within one month of experiment, data not shown
Procedure: Murine myelomonocytic leukemia cell line WEHI-3 was obtained from the Food Industry Research and Development Institute (Hsinchu, Taiwan). […] This cell line can induce leukemia in syngenic BALB/c mice for evaluating anti-leukemia effects of drugs.
Specifically, BLAB/c mice were divided into 4 groups. Group I was injected i.p. with WEHI-3 only. […] Control mice and all groups of mice were treated for 2 weeks before the animals were weighed and the blood was draw and sacrificed for further experiments.
The spleen and liver tissues were isolated from individual animals, photographed, weighed, and histopathologically examined.

[4] = system: human hepatocellular carcinoma HA22T cells; conditions: cited from earlier work
[5] = system: WEHI-3 cells; assay: Cell cycle analysis of WEHI-3 cells in vitro; assay type: cell-based, murine; conditions: compound 1 5 μM, ATRA 1 μM, 24 h; data not shown
[6] = system: WEHI-3 cells; assay: DNA fragmentation by agarose gel electrophoresis in WEHI-3 cells; conditions: compound 1 at 5 μM, 12 and 24 h; FIG. 4A
Procedure: (§1) The results were expressed as mean±S.D. and the difference between the groups was tested by one way ANOVA.

[7] = system: A498 renal cancer cells; assay: A498 renal cancer xenograft tumor growth in athymic nude mice; assay type: in vivo; conditions: single agent; Compound 1 10 mg/kg/day oral in 0.5% CMC; paclitaxel or doxorubicin 20 mg/kg/week i.p.; nude mice with A498 tumors
Procedure: Athymic nude mice (BALB/c nu/nu female, 6-8 week old) were housed at 22° C. on a 12 h light/dark cycle. The mice were subcutaneously injected with A498 renal cancer cells (10^7 cell/mouse). After inoculation for 15 days, tumors were grown to a size of 100 to 150 mm^3. The mice were then randomly divided into six grounds (5 mice in each group). […] (paclitaxel and doxorubicin are commercial products). […] The tumors were carefully removed and weighed.

[8] = system: platelet; conditions: cited from earlier work
[9] = system: Hep3B cells; conditions: cited from earlier work
[10] = system: caspase-3; assay: Caspase-3 activity assay in WEHI-3 cells; conditions: 12, 18 and 24 h treatment; 50 μM of compound 1; FIG. 4B
Procedure: as §1

Structure (SMILES) | TUNEL positive cells [1] [%] | nuclear shrinkage, chromatin condensation and DNA fragmentation (TUNEL/DAPI) [1] | NBT-reduction compared with control cells [2] | percentages of NBT positive cells [2] [%] | mean survival time of WEHI-3/BALB/c mice [3] [days] | Survival days Range [3] [days] | Survival days Mean ± S.D. [3] [days] | infiltration of immature myeloblastic cells into splenic red pulp [3] | body weight loss in leukemia mice [3] | cell cycle arrest [4] | sub-G1 population [5] | DNA fragmentation (agarose gel) [6] | tumor size compared with control group [7] | antiplatelet activity [8] | hypoxia induction of erythropoietin and vascular endothelial growth factor [9] | caspase-3 activity [10]
CC1=C(/C=C/C(C)=C/C=C/C(C)=C/C(=O)O)C(C)(C)CCC1 [ATRA, all trans retinoic acid, reference compound] | 5.45 | not observed | significant increases | 33.42 | 42 | 26 to 42 | 33.9 ± 5.0 | reduced | improved the body weight loss |  |  |  |  |  |  | 
OCc1ccc(-c2nn(Cc3ccccc3)c3ccccc23)o1 [Compound 1, 1-benzyl-3-(5′-hydroxymethyl-2′-furyl)indazole] | 40.33 | exhibited nuclear shrinkage, chromatin condensation and DNA fragmentation |  | 3.56 | 40 | 22 to 40 | 32.3 ± 4.9 | reduced | improved the body weight loss | arresting cell cycles at the Go/G1 stage | increased sub-GI population | fragmented into a ladder of 180-200 base pairs | smaller tumors than those in the control group | novel antiplatelet agent | inhibits hypoxia induction of erythropoietin and vascular endothelial growth factor | rapid induction of caspase-3 activity
COc1cccc2c1C(=O)c1c(O)c3c(c(O)c1C2=O)C[C@@](O)(C(=O)CO)C[C@@H]3O[C@H]1C[C@H](N)[C@H](O)[C@H](C)O1 [doxorubicin, Doxorubicin] |  |  |  |  |  |  |  |  |  |  |  |  | smaller tumors than those in the control group |  |  | 
CC(=O)O[C@H]1C(=O)[C@@]2(C)[C@H]([C@H](OC(=O)c3ccccc3)[C@]3(O)C[C@H](OC(=O)[C@H](O)[C@@H](NC(=O)c4ccccc4)c4ccccc4)C(C)=C1C3(C)C)[C@]1(OC(C)=O)CO[C@@H]1C[C@@H]2O [paclitaxel, Paclitaxel] |  |  |  |  |  |  |  |  |  |  |  |  | smaller tumors than those in the control group |  |  | 
